Experimental data taken from publication PMC5554167, “Intestinal transepithelial permeability of oxytocin into the blood is dependent on the receptor for advanced glycation end products in mice” (Scientific Reports, 2017).
Read-outs that look alike come from different tables or passages of the source.

Tests used:
[1] = adult humans, cited from earlier work
Protocol: An estimation of bioavailability was performed in adult mice. Fifty ng/mL of OT was detected after oral delivery of 10 μg of OT. Young adults weigh approximately 30 g and have 2.3 mL blood, so approximately 1% of oral OT can be absorbed. We have previously identified OT in the mammary tissues of mouse dams and in the milk curd inside the oesophagi of pups[13]. To determine the OT concentrations in milk, we needed to collect milk from the mothers. One common method is to collect milk after stimulating secretion with external OT. Because such milk contains external OT, we were unable to calculat ...

[2] = LC-MS/MS of [Ile13C,15N]OT in plasma after oral administration to pups; type: in vivo, mice
Protocol: Plasma samples were collected from the heart of anesthetized wild-type PND3 pups at 10 min after oral administration of [Ile ^13C, ^15N]OT (100 µM × 10 μL). The samples were fractionated with 1 N salt, and subjected to LC-MS/MS after sample preparation by the deproteination procedure. Figure 7 illustrates two representative traces of multiple reaction monitoring (MRM) chromatograms ([M + H^+] (m/z 1014.6) → b6 ion (m/z 730.6) for the administered [Ile ^13C, ^15N]OT; [M + H^+] (m/z 1021.2) → b6 ion (m/z 723.2) for the internal STD [Pro&Leu^13C, ^15N]OT)[47]. The left MRM chromatogram indicates the presence of full-length stably labelled [Ile ^13C, ^15N]OT in the blood owing to intestinal absorption after oral administration in suckling (PND3) pups (n = 4). The right MRM chromatogram of Fig. 7 corresponds to the internal STD [Pro&Leu^13C, ^15N]OT spiked into the plasma.
Standard (STD) samples of [Ile^13C, ^15N]OT (100 ng/mL) and [Pro&Leu^13C, ^15N]OT (100 ng/mL) were prepared by dilution of stock solutions with 0.1% TFA as necessary. […]
An AB Sciex 4000 QTRAP (CA, USA) was used. The prepared 25 μL sample was injected and separated by a ZORBAX 300SB-C8 column (2.1 × 150 mm, 5 μm; CA, USA) and then detected using the multiple reaction monitoring (MRM) mode of the MS/MS system. […]

[3] = Plasma AVP after oral delivery of AVP in pups (EIA); type: in vivo, mice; conditions: for AVP recovery: rough estimate
Protocol: To study the specificity of RAGE-dependent transport of OT, we investigated the intestinal absorption of another nonapeptide, arginine vasopressin (AVP[46]) by oral delivery and in the isolated intestines. Transport during the suckling period of development (PND3 and PND5) was confirmed by comparing plasma AVP levels at 10 min after oral delivery of 10 μL of synthetic AVP solution (100 μM; 1 μg/pup) or the same volume of PBS to pups after fasting for 30 min. Plasma AVP concentrations were markedly higher at both PND3 and PND5 in pups administered AVP than in those administered oral saline (Fig. 6a). Two-way ANOVA was used to analyse the interaction between Treatment (PBS/AVP) × Age, F 1,18 = 3.14, P = 0.0933; the Treatment (PBS/AVP) effect, F 1,18 = 5.21, P < 0.05; and the Age effect, F 1,18 = 91.26, P < 0.0001. Bonferroni’s post hoc tests were used to determine differences in AVP levels between PND3 and PND5, *P < 0.05. It is worth noting that the pup size denominator problem was also present in the above experiment. However, if we roughly estimate AVP recovery, it is approximately 4% at PND3 (22 ng was recovered from the effective dose of 555 ng (1 μg/1.8 g pup)) and also 4% at PND5 (16 ng was recovered from the effective dose of 400 ng (1 μg/2.5 g pup)).
Approximately 30 μL of blood was collected from the facial vein of neonates after quick cold anesthesia on ice (Fig. 1a; ref. [67], [68]). The similar blood volume was obtained from the heart after opening of the chest of pups (Figs 1b–d, 3a,b, 6a and 7), from the carotid artery in the pup neck (Fig. 2a) and the tail vein of adults each time (Fig. 6) under ketamine anaesthesia ([…] intraperitoneally).
OT or AVP immunoreactivity levels were quantified by using OT and AVP enzyme immunoassay (EIA) kits (Enzo Life Sciences, NY, USA), respectively. We performed assays in tissue preparations without pre-treatment[66], [70] to compare different tissue samples, though the fractioned sample was recommended, [72]. Blood samples collected as mentioned above were stored at −80 C. The blood samples were thawed and five μL of them were diluted 1:20 in assay buffer on ice and assayed.

For `CC[C@H](C)[C@@H]1NC(=O)[C@H](Cc2ccc(O)cc2)NC(=O)[C@@H](N)CSSC[C@@H](C(=O)N2CCC[C@H]2C(=O)N[C@@H](CC(C)C)C(=O)NCC(N)=O)NC(=O)[C@H](CC(N)=O)NC(=O)[C@H](CCC(N)=O)NC1=O`, the OT detected in plasma after oral delivery was 50 ng/mL.

For 1-deamino-8-arginine vasopressin, the Bioavailability ([1]; intranasal) is listed as 3.4%, the Bioavailability ([1]; intrarectal) is listed as 0% and the Bioavailability ([1]; oral) is listed as 0.1%. For the same molecule, the Bioavailability ([1]; sublingual) was 0%.

With `CC[C@H](C)[C@@H]1NC(=O)[C@H](Cc2ccc(O)cc2)NC(=O)[C@@H](N)CSSC[C@@H](C(=O)N2CCC[C@H]2C(=O)N[C@@H](CC(C)C)C(=O)NCC(N)=O)NC(=O)[C@H](CC(N)=O)NC(=O)[C@H](CCC(N)=O)NC1=O` [[Ile ^13C, ^15N]OT, isoleucine [Ile ^13C, ^15N] oxytocin] the level at 10 min ([2]; mouse, in vivo, 1000 ng, wild-type PND3 pups 10 min after oral 100 µM × 10 μL, LC-MS/MS, corrected for dilution x10, n = 4, read-out: Estimated mean concentration in the blood) was 346 ± 96 ng/mL and the “Concentration calculated from ratio of peak areas (10-fold diluted sample)” value ([2]; wild-type PND3 pup plasma 10 min after oral 100 µM × 10 μL, LC-MS/MS MRM, sample of Fig. 7, before correction for dilution) was 27.9 ng/mL.

For arginine vasopressin [AVP], the AVP recovered ([3]; wild-type pups PND3, 10 min after oral AVP 1 μg/pup, effective dose 555 ng) was 22 ng, the AVP recovery ([3]; wild-type pups PND3, 10 min after oral AVP 1 μg/pup, effective dose 555 ng (1 μg/1.8 g pup)) was “approximately 4%” and the AVP recovered ([3]; wild-type pups PND5, 10 min after oral AVP 1 μg/pup, effective dose 400 ng) was 16 ng. For the same molecule, the AVP recovery ([3]; wild-type pups PND5, 10 min after oral AVP 1 μg/pup, effective dose 400 ng (1 μg/2.5 g pup)) was “approximately 4%”.
